# Assay results published in ChEMBL document CHEMBL3596090, “Discovery of novel pyrazole-containing benzamides as potent RORγ inverse agonists” (Bioorg Med Chem Lett, 2015).
# Columns and labels:
# [1] = target: T1, Nuclear receptor subfamily 1 group I member 2 (Homo sapiens, UniProt O75469); experiment: Activation of PXR (unknown origin)
# T1 sequence (O75469 whole entry): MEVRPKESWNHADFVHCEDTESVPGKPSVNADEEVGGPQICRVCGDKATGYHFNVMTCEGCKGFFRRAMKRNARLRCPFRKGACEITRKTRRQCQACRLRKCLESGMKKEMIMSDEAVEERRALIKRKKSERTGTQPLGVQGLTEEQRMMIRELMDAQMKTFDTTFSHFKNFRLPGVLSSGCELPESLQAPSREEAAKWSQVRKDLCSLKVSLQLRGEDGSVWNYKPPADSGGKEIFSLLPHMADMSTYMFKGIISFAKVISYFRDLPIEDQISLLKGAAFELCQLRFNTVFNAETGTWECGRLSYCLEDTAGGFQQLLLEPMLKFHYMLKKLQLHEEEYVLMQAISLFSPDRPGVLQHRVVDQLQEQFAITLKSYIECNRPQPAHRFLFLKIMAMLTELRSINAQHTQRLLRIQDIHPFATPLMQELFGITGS
# [2] = target: T2, Nuclear receptor ROR-alpha (Homo sapiens, UniProt P35398); experiment: Inverse agonist activity at RORalpha (unknown origin)
# T2 sequence (P35398 whole entry): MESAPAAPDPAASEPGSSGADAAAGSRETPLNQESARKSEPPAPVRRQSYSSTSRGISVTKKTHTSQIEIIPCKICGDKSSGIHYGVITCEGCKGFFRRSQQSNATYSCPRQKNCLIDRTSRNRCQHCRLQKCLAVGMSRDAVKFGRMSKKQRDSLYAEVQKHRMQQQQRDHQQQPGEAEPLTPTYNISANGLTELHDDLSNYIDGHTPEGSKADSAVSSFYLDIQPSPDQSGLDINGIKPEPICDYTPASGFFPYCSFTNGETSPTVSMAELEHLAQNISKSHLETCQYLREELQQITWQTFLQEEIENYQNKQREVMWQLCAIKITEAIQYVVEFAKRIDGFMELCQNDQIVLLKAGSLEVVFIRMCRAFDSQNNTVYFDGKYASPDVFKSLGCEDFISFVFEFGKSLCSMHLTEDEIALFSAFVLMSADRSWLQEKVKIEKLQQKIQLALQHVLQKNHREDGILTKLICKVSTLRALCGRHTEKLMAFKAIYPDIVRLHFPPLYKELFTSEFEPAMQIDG
# [3] = target: T3, Nuclear receptor ROR-beta (Homo sapiens, UniProt Q92753); experiment: Inverse agonist activity at RORbeta (unknown origin)
# T3 sequence (Q92753 whole entry): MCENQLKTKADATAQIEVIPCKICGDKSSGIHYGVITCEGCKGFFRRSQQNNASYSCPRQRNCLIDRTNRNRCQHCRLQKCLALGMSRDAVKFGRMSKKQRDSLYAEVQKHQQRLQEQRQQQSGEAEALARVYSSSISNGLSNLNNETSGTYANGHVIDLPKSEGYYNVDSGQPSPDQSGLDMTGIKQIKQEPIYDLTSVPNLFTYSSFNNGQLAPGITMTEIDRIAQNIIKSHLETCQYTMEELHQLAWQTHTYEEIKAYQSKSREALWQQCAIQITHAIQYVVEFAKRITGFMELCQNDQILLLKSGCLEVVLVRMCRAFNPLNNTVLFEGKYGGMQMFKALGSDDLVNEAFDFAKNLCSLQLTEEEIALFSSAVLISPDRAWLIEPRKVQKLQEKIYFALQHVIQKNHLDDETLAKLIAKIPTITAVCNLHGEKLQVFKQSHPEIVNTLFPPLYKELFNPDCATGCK
# [4] = Kinetic aqueous solubility of the compound; type: physicochemical; details: buffer; read-out: Kinetic_solubility
# [5] = AUC (0 to 7 hrs) in rat at 10 mg/kg, po; type: ADME, organism-based; parameters: time < 7 hr, dose 10 mg/kg, route oral; details: in vivo
# [6] = AUC in mouse at 25 mg/kg, po; type: ADME, organism-based; details: in vivo
# [7] = target: T4, Nuclear receptor ROR-gamma (Mus musculus, UniProt P51450); experiment: Inverse agonist activity at RORgamma in C57BL/6 mouse splenocytes assessed as reduction of IL-17 production after 2 days by ELISA; type: cell-based
# T4 sequence (P51450 whole entry): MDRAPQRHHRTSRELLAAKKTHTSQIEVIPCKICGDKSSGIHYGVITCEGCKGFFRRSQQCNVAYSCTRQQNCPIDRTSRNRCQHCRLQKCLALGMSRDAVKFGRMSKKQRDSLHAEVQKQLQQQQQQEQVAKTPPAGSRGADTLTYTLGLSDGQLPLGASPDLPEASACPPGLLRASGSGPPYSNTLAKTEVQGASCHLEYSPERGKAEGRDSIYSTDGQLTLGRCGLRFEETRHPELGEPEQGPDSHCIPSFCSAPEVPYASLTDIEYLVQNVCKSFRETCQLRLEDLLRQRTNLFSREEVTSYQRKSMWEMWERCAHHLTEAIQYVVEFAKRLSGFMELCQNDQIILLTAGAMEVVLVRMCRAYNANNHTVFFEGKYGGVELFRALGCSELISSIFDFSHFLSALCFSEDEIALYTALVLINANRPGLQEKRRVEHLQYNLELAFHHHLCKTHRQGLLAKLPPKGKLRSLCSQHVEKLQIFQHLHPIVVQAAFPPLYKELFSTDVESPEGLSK
# [8] = Percentage unbound in rat plasma; type: ADME, cell-free
# [9] = Percentage unbound in human plasma; type: ADME, cell-free
# [10] = target: T5, Nuclear receptor ROR-gamma (Homo sapiens, UniProt P51449); experiment: Inverse agonist activity at RORgamma (unknown origin) transfected in HEK293T cells after 16 to 20 hrs by GAL4 luciferase reporter gene assay; type: functional, cell-based, HEK-293T
# T5 sequence (P51449 whole entry): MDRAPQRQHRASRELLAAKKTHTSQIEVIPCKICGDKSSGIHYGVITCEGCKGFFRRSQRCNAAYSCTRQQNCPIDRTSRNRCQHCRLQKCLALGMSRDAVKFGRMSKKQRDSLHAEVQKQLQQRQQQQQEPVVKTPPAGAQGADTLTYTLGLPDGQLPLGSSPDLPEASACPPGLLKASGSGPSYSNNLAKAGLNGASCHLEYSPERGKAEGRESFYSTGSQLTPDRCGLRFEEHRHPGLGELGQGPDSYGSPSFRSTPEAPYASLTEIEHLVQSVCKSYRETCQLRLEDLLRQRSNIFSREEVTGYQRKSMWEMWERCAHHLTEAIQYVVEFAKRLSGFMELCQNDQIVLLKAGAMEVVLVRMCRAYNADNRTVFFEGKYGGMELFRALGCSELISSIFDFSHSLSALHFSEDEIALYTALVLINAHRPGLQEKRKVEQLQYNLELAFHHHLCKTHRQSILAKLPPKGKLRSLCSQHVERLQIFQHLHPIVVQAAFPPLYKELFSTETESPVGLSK
# [11] = AUC in po dosed rat; type: ADME, organism-based; details: in vivo
# [12] = target: T5, Nuclear receptor ROR-gamma; experiment: Binding affinity to GST-tagged RORgamma LBD (unknown origin) assessed as inhibition of interaction with co-activatior peptide TRAP220 preincubated for 1 hr followed by TRAP220 addition by FRET analysis
EC50 [1],EC50 [2],EC50 [3],solubility kinetic [4],AUC(0-t) at 7 h [5],AUC [6],EC50 [7],fraction unbound [8],fraction unbound [9],EC50 [10],AUC [11],IC50 [12],Compound
5400 nM,9300 nM,2300 nM,37.4 µg/mL,927 ng·h/mL,2260 ng·h/mL,34 nM,0.013,0.076,–,–,–,CC(=O)Nc1cc(-c2cnc(N(C)C(=O)c3c(F)cccc3Cl)c(N3CCCCC3)c2)n(C(C)C)n1
–,–,–,0.3 µg/mL,–,–,895 nM,0.002,0.003,98 nM,3130 ng·h/mL,29 nM,[2H]C([2H])([2H])N(C(=O)c1c(F)cccc1Cl)c1ccc(-c2cc(C(N)=O)ccc2Cl)cc1OCC(F)(F)F
9900 nM,1600 nM,1300 nM,2.1 µg/mL,1040 ng·h/mL,2830 ng·h/mL,38 nM,0.002,0.014,–,–,–,[2H]C([2H])([2H])N(C(=O)c1c(F)cccc1Cl)c1ccc(-c2cc(NC(C)=O)nn2C(C)C)cc1N1CC2CC2C1 (configuration not stated)
–,–,–,–,–,–,–,–,–,> 1000 nM,–,> 5000 nM,CC(=O)Nc1nc(-c2cnc(N(C)C(=O)c3c(F)cccc3Cl)c(N3CCCCC3)c2)n(C(C)C)n1
